{"source": "patent US20130203649A1", "about": "“INHIBITORS OF TLR SIGNALING BY TARGETING TIR DOMAIN INTERFACES” (UNIVERSITY OF MARYLAND, BALTIMORE, priority 2012, published 2013)", "key": {"[1]": {"tested_on": "mouse peritoneal macrophages", "conditions": "3-h incubation; data not shown", "procedure": "A total of 5×10^4 mouse peritoneal macrophages was plated into 96-well tissue culture plates, incubated overnight, and treated with peptides for 3 h. After the treatment, cells were incubated with MTT at 0.5 mg/ml (Sigma-Aldrich) for 3 h. Fifty microliters DMSO was added to cells before reading OD at 540 nm."}, "[2]": {"tested_on": "MAPK (ERK, JNK, p38)", "assay": "MAPK activation by peptide alone, macrophages without TLR agonist", "type": "cell-based, mouse", "conditions": "peptide alone; data not shown", "procedure": "Neither TIRAP peptide activated ERK in cells incubated without a TLR agonist (not shown). […] The mechanism of this differential MAPK activation by select peptides, although interesting, is not understood at this time. Peptides TR9 and TR11 inhibited both ERK and JNK MAPKs (FIG. 1D). Peptide-induced inhibition of ERK persisted over a long period of time.\nWe next examined whether TRAM peptides inhibit the TLR4-mediated p38, ERK, and JNK MAPK activation. Murine macrophages pretreated with peptides for 30 min were challenged with LPS. Cell lysates were collected 30 min post-stimulation and analyzed for MAPK phosphorylation by Western analysis. Consistent with peptide effects on steady-state mRNA, both TM4 and TM6 inhibited activation of all three MAPKs (FIG. 5C). The inhibition of MAPKs by TM4 or TM6 was long lasting; it persisted for at least 1 h after LPS stimulation (data not shown). To characterize further the effects of TRAM peptides on MAPKs, murine macrophages were treated with TRAM peptides, but not challenged by LPS."}, "[3]": {"tested_on": "TLR4", "assay": "Inhibition of TLR4 signaling in thioglycollate-elicited mouse macrophages (effective concentration, overall inhibitory activity)", "type": "cell-based", "conditions": "for Effective conc.: TLR4 pathway, thioglycollate-elicited mouse macrophages", "procedure": "C57BL/6J mice were obtained from The Jackson Laboratory (Bar Harbor, Me.). Primary peritoneal macrophages were obtained by peritoneal lavage 4 days after intraperitoneal injection (3 ml) of sterile 3% thioglycolate broth. Washed cells were resuspended in RPMI 1640 which contained 2% FBS, 1% penicillin:streptomycin and 2 mM L-glutamine. After plating, cells were incubated overnight at 37° C. and then washed with PBS to remove non-adherent cells. Cells were exposed to peptides 30 min before stimulation with a TLR agonist.\nTIRAP/Mal functions to facilitate MyD88 recruitment to the activated TLR4 and TLR2, presumably through a simultaneous interaction with receptor and MyD88 TIR domains. Therefore, multiple TIR:TIR interaction sites are expected in TIRAP TIR. The decoy peptide approach was used to obtain leads on the functional protein-protein interfaces within TIRAP/Mal, a TLR adapter protein. To this end, eleven TIRAP TIR-derived decoy peptides were designed to be structurally homologous to the TLR4 TIR-derived decoy peptides used previously (1), so that each peptide represents a non-fragmented patch of the TIRAP TIR surface, with the entire domain encompassed by the set of peptides. The TIRAP TIR-derived decoy peptides were synthesized in tandem with the cell-permeating sequence of Antennapedia homeodomain (21) and each peptide was tested for the ability to inhibit TLR4 and TLR2 signaling in primary mouse macrophages. Peptide sequences and the structural regions they represent are shown in reference (30).\nC57BL/6J mice were obtained from The Jackson Laboratory (BarHarbor, Me.). Harvesting, culturing, and stimulation of peritoneal macrophages were described in previous publications (1, 18, 19). Escherichia coli K235 LPS (34) was used at the final concentration of 100 ng/ml. The 2,3-bis(palmitoyloxy)-(2-RS)-propyl-N-palmitoyl-(R)-Cys-Ser-Lys4-OH (P3C) and S[2,3-bis(palmitoyloxy)-(2-RS)-propyl]-[R]-Cys-Ser-Lys4-OH (P2C) (EMC Microcollections, Tubingen, Germany) were used at 500 and 50 ng/ml, respectively. Oligonucleotide (ODN) 1668 and low m.w. polyinosinic-polycytidylic acid [poly(I:C)] in complex with LyoVec were obtained from InvivoGen; these agonists were used at 2.5 μM and 400 ng/ml, respectively."}, "[4]": {"tested_on": "C57BL/6J mice", "assay": "Survival after lethal LPS challenge in C57BL/6J mice", "type": "in vivo, mouse", "conditions": "LPS 17.5 μg/g i.p.", "procedure": "(§1) FIG. 10. […] (A-E) C57BL/6J mice were injected i.p. with purified Escherichia coli K235 LPS (1 μg/g) or PBS. Peptides (10 nmol/g of animal weight) were injected i.p. (A, B, D, E) or i.v. (C) 1 h before (A, B, and C) or 30 min after (D, E) i.p. injection of LPS. Data in panels A and D show plasma IL-6 and TNF-α levels measured 2 h after LPS challenge. Peptide TM8/9 was used as a non-inhibitory control peptide. Data represent the means±s.e.m. for 6-12 blood samples obtained in at least three independent experiments. *p<0.01. (F, G) C57BL/6J mice were challenged i.p. with a lethal LPS dose (17.5 μg/g). Peptides (10 nmol/g) were injected i.p. 1 h before LPS challenge. […] The statistical significance of changes in mortality and survival time was determined by the Mantel Cox log-rank test using GraphPad Prism software (Version 5.04). *p<0.01.\n(§2) Eight-week-old C57BL/6J mice were injected with 1 or 17.5 μg/g animal weight of E. coli K235 LPS i.p. Peptides reconstituted in PBS were administered i.p. or i.v. Control groups received equivalent volume of solvent (PBS). The blood samples were collected 1, 2, 4, and 8 h, or 2, 8, and 24 h after LPS challenge. The plasma samples were obtained and kept frozen until TNF-α and IL-6 were measured by ELISA. Survival of animals was monitored every 6-16 h after LPS challenge. All animal experiments were carried out with institutional approval.\nWe next studied whether inhibitory peptides protect mice from a lethal LPS challenge. TR6, a previously described inhibitory peptide derived from the third helical region of TRAP (30), was also included in this study as an additional control. C57BL/6J mice were injected i.p. with 17.5 μg/g LPS. This dose induced 100% mortality in the control group (FIG. 10F). […] The peptide-treated survivors appeared active and healthy at the time the experiments were terminated, 7 d after injection of LPS."}, "[5]": {"tested_on": "C57BL/6J mice", "assay": "Plasma TNF-α and IL-6 after sublethal LPS challenge in C57BL/6J mice", "type": "in vivo, mouse", "procedure": "as §1, §2\nWe next studied whether peptides identified as inhibitory in in vitro tests are effective in vivo. C57BL/6J mice were challenged i.p. with a sublethal LPS dose (1 μg/g animal weight), and plasma TNF-α and IL-6 levels were monitored for 8 h after the challenge. In the first series of experiments, we injected 10 nmol/g TM4 or TM6 i.p. 1 h before LPS challenge. The 10 nmol/g dose corresponds to 38, 41, and 32 mg/kg TM4, TM6, and TM4-ΔC, respectively."}, "[6]": {"tested_on": "C57BL/6J mice", "assay": "In vivo efficiency of decoy peptides (Table 1; LPS challenge in mice)", "design": "species or system mouse", "procedure": "FIG. 4. Effect of select TRAP decoy peptides on TNF-α and IL-6 in blood following an ip LPS challenge. C57BL/6J mice were injected with TR5, TR6, or TR7 peptide or mock-treated 1 hour before injection of purified E. coli LPS. Peptides and LPS were injected to mice intraperitonealy 10 nmol or 1 μg per gram of animal weight, correspondingly.\nas §1, §2"}}, "note": "Several values for one entry are separate records, joined by “and”; a condition that tells them apart may be missing. Equal values may be shown once. Entries after “also recorded” stand apart in the source; their conditions may differ. No end group written: not given here."}
{"substance": "RQIKIWFQNRRMKWKKENFLRDTWCNFQFY [TM6]", "values": [{"measurement": "Cell viability (MTT)", "setting": "[1]", "result": "Neither inhibitory peptide affected cell viability in a significant way"}]}
{"substance": "TM3: TRAM decoy peptide: Antennapedia sequence at N terminus of QNDFGIRPG (RQIKIWFQNRRMKWKKQNDFGIRPG)", "values": [{"measurement": "p38 and ERK MAPK activation without LPS stimulation", "setting": "[2]", "result": "weakly activated"}]}
{"substance": "RQIKIWFQNRRMKWKKIVFAEMPCGRLHLQ [TM4]", "values": [{"measurement": "Cell viability (MTT)", "setting": "[1]", "result": "Neither inhibitory peptide affected cell viability in a significant way"}]}
{"substance": "RQIKIWFQNRRMKWKKIVFAEMPCG [TM4-ΔC]", "values": [{"measurement": "Effective conc.", "setting": "[3]", "result": 10, "unit": "µM"}, {"measurement": "Inhibitory activity of modified TM4 peptides on TLR4-driven MAPK activation and cytokine mRNA (FIG. 8)", "setting": "[3]; relative ranking among TM4 variants", "result": "close to that of TM4"}, {"measurement": "Survival after lethal LPS challenge", "setting": "[4]; peptide 10 nmol/g i.p. 1 h before", "result": "rescued all animals and 10 of 10 and protect"}, {"measurement": "Survival after lethal LPS challenge, therapeutic administration", "setting": "[4]; peptide i.p. 3 h after LPS", "result": "Five of seven"}, {"measurement": "Plasma TNF-α and IL-6", "setting": "[5]; 10 nmol/g i.p. 30 min after LPS, 2 h after LPS or thereafter", "result": "markedly diminished"}, {"measurement": "Circulating TNF-α and IL-6", "setting": "[5]; 10 nmol/g i.p. 30 min after LPS, measured 1 h after LPS", "result": "did not affect"}, {"measurement": "Circulating IL-6 and TNF-α levels", "setting": "[5]; 10 nmol/g i.v., LPS i.p., 8-h observation", "result": "significantly lowered"}, {"measurement": "Efficiency with respect to circulating IL-6 at 4- or 8-h time points", "setting": "[5]; dose increased to 25 nmol/g", "result": "did not augment"}, {"measurement": "LPS-induced systemic cytokine response in vivo", "setting": "[5]; sublethal LPS 1 μg/g, peptide 10 nmol/g", "result": "strongly suppress; also recorded: effectively suppress"}, {"measurement": "In vivo efficiency", "setting": "[6]", "result": "yes, i.p."}]}
{"substance": "RQIKIWFQNRRMKWKKCLQDAIDHS [TF5-ΔC]", "values": [{"measurement": "Effective conc.", "setting": "[3]", "result": 20, "unit": "µM"}, {"measurement": "In vivo efficiency", "setting": "[6]", "result": "Yes, i.p."}]}
